Consider two compounds from article PMC8504577, “Evaluation of a Clinically Relevant Drug–Drug Interaction Between Rosuvastatin and Clopidogrel and the Risk of Hepatotoxicity” (Frontiers in Pharmacology, 2021).

The subject of data set [1] is human primary hepatocytes. Briefly: Cytotoxicity (MTT, AST, LDH) in cryopreserved human hepatocytes. It is filed as cell-based. As to the method: Cytotoxicity was determined with MTT assay in cryopreserved human hepatocytes. Thawing and plating of cryopreserved hepatocytes were carried out according to the manufacturer’s protocol. […] 11 μL of 5 mg/ml MTT was added to each well of the plate, and then the plate was incubated at 37°C for 3–4 h. After the medium was aspirated, 150 μL of DMSO was added to dissolve the formazan. The absorbance at 570 nm was measured and corrected for background absorption at 690 nm using a SpectraMax® i3 plate reader (Molecular Devices, Silicon Valley, CA, United States). AST and LDH levels in the medium of parallel processed plates were measured by commercially available assay kits. […] All experiments were performed in triplicate.

A short description of data set [2]: Plasma pharmacokinetic study in rats. As for the experimental part:
For the plasma pharmacokinetic study, 16 rats were randomly assigned into four groups (n = 4, each group, groups I to IV) and received oral (p.o.) administrations as oral gavage of CP (27 mg/kg) or the same volume of vehicle control for 20 days. Then, the rats were made to fast overnight before dosing but with free access to water. On day 21, rats in group I were treated with a p.o. dose as oral gavage of CP at 27 mg/kg and a single intravenous (i.v.) dose of RSV at 5 mg/kg. Rats in group II were treated with a p.o. dose as oral gavage of vehicle control and a single i.v. dose of RSV at 5 mg/kg. Rats in group Ⅲ were treated with a p.o. dose as oral gavage of CP at 27 mg/kg and a p.o. dose as oral gavage of RSV at 5 mg/kg. Rats in group Ⅳ were treated with a p.o. dose as oral gavage of vehicle control and a p.o. dose as oral gavage of RSV at 5 mg/kg. Blood samples (0.15 ml) were collected at 0, 1, 2, 5, 15, 30, 60, 120, 180, 360, 480, 600, and 720 min after administration of the i.v. dose of the RSV group and at 0, 5, 30, 60, 120, 180, 360, 480, 600, and 720 min for the p.o. dose as oral gavage of the RSV group. After each sampling, a volume of 0.15 ml physiologic saline solutions was administered to sustain isotonic fluid balance. Plasma samples were harvested by using a centrifuge and then stored at −80°C until analysis by LC-MS/MS.
A Shimadzu LC-30AD liquid chromatography system (Shimadzu, Kyoto, Japan) and an API4000 triple quadruple tandem mass spectrometer (Applied Biosystems/Sciex, Framingham, MA, United States) coupled with an ESI source was used for the LC-MS/MS analysis of in vivo samples. The separation was carried out on an Agilent Extend C18 column (1.8 µm, 4.6 mm × 30 mm, Agilent Technologies). The mobile phase consisting of acetonitrile (A) and water (B: 1 mM ammonium acetate and 1% (V/V) formic acid). […] The flow rate was 1 ml/min and the gradient elution method was as follows: 0.01 min (10% A)-0.4 min (10% A), 0.8 min (95% A)-2.0 min (95% A), and 2.3 min (10% A)-2.5 min (stop).
Phoenix WinNonlin® 7.1 (Pharsight Corporation, Mountain View, CA, United States) was used to calculate the pharmacokinetic parameters by the noncompartmental method. IC50 values were obtained by a computer-generated nonlinear least squares fit using GraphPad Prism 8.1 (GraphPad Software, San Diego, CA, United States). Statistical analysis was performed using SPSS ver. 22.0 (IBM, Chicago, IL, United States). The results are presented as mean ± S.D., unless otherwise stated. After testing for the homogeneity of variance, statistical analysis was performed with a one-way ANOVA followed by the LSD post hoc test or unpaired Student’s t-test. A probability (p) of less than 0.05, 0.01, and 0.001 was considered to be statistically significant, highly significant, and extremely significant, respectively.

The subject of data set [3] is human primary hepatocytes. As for the experimental part: Cytotoxicity was determined with MTT assay in cryopreserved human hepatocytes. Thawing and plating of cryopreserved hepatocytes were carried out according to the manufacturer’s protocol. Primary human hepatocytes at a density of 7×10^4 cells/well were cultured for 24 h after plating in 96-well collagen-coated plates. Then, the hepatocytes were treated with varying concentrations of RSV, CP, RSV plus CP, or tamoxifen and incubated for 24 or 96 h at 37°C. 11 μL of 5 mg/ml MTT was added to each well of the plate, and then the plate was incubated at 37°C for 3–4 h. After the medium was aspirated, 150 μL of DMSO was added to dissolve the formazan. The absorbance at 570 nm was measured and corrected for background absorption at 690 nm using a SpectraMax® i3 plate reader (Molecular Devices, Silicon Valley, CA, United States). AST and LDH levels in the medium of parallel processed plates were measured by commercially available assay kits. […] All experiments were performed in triplicate.
A Shimadzu LC-20AD liquid chromatography system (Shimadzu, Kyoto, Japan) and an API5000 triple quadrupole tandem mass spectrometer (Applied Biosystems/Sciex, Framingham, MA, United States) coupled with an electrospray ionization (ESI) source was used for the determination of in vitro samples. Chromatographic separation was conducted with gradient elution on a Synergi Hydro-RP column (30 × 2.0 mm, 4 μm, Phenomenex, Torrance, CA, United States). […] The mobile phase consisted of methanol (A) and water (B), both containing 0.1% (V/V) formic acid. The flow rate was 0.5 ml/min and the gradient elution was run using the following program: 0.01 min (15% A)-1.0 min (95% A), 1.5 min (95% A)-1.51 min (15% A), 2.5 min (stop).

The test system of data set [4] is sodium taurocholate cotransporting polypeptide (NTCP). The conditions noted are these: ref Elsby et al., 2016; cited from earlier work.
[5] abbreviates: rats, p.o. RSV (group III vs IV).
[6] abbreviates: rats, p.o. RSV (group III vs IV), not significant.
Where [7] appears, read: 96 h co-exposure with 100 µM CP vs without CP.

“And” between values parts separate entries of the source, which are not always exact repeats. Equal values may be shown once. “Also recorded” adds a separate entry of the source.

As to `COC(=O)[C@H](c1ccccc1Cl)N1CCc2sccc2C1` [CP, clopidogrel], in data set [1] (24 and 96 h incubation), the “Cytotoxicity (MTT)” value is recorded as “no effect on cell viability; also recorded: did not show hepatotoxic effects”. In data set [1] (96 h, presence of 100 µM CP), the “AST level in medium” value is given as “trend of increase” and the “LDH level in medium” value is reported as “missed statistical significance”. The Plasma concentration result in data set [2] (rats, after 8 h post-dosing) is given as “undetectable”. The Free medium concentration in data set [3] (human) lay within 0.026 to 0.40 nM.
`CC(C)c1nc(N(C)S(C)(=O)=O)nc(-c2ccc(F)cc2)c1/C=C/[C@@H](O)C[C@@H](O)CC(=O)O` [RSV, rosuvastatin]: in data set [1] (96 h, co-incubation with 100 µM CP where combined), the “Cytotoxicity (MTT)” value is reported as “dose-dependent cytotoxicity”. Moreover, in data set [2] (rat plasma, Group II: single i.v. RSV 5 mg/kg + p.o. vehicle control), the “Vss (Vss/F)” value is reported as 1,148.40 ± 701.23 ml/kg. Moreover, in data set [2] (rats, i.v. RSV), the “RSV AUC in presence of CP relative to absence” value is 1.76 fold. Moreover, in data set [2] (rats, i.v. RSV (group I vs II)), the “Decrease of RSV CL by multiple p.o. doses of CP” value is 42.62% and 42.6%; the “Increase of RSV plasma AUC0-infinity by multiple p.o. doses of CP” value stood at 76.29%; the “Increase of RSV plasma AUC0–12h by multiple p.o. doses of CP” value amounted to 75.55%. The “Increase of RSV Cmax by multiple p.o. doses of CP” value in data set [2] (rats, i.v. RSV (group I vs II), not significant) turned out to be 110.32%. Also, the “RSV AUC in presence of CP relative to absence” value in data set [2] (rats, p.o. RSV) turned out to be 1.87 fold. In data set [2] (setting [5]), the “Decrease of RSV CL by multiple p.o. doses of CP” value was 43.27% and 43.3%; the “Increase of RSV plasma AUC0-infinity by multiple p.o. doses of CP” value is 87.48%; the “Increase of RSV plasma AUC0–12h by multiple p.o. doses of CP” value was determined as 67.27%. Also, in data set [2] (setting [6]), the “Decrease of RSV Vss by multiple p.o. doses of CP” value worked out at 49.42% and the “Increase of RSV Cmax by multiple p.o. doses of CP” value amounted to 43.90%. The clearance in data set [2] (read-out: CL (CL/F), rat plasma, Group II: single i.v. RSV 5 mg/kg + p.o. vehicle control) was 59.1 mL/min/kg. For the same compound, the “Individual contribution of NTCP to hepatic uptake” value in data set [4] is recorded as 0.21. Moreover, in data set [3] (setting [7]), the “Cell to medium concentration ratio of RSV” value was “significantly increased; also recorded: significantly enhanced” and the “Intracellular concentration of RSV” value was “significantly increased; also recorded: significantly enhanced”.
